Assay results as given in patent publication US10221144B2, “Antibacterial compounds having broad spectrum of activity” (priority 2014, dated 2019).

What was measured:
Format in all cases: biochemical
[1] = target: T1, S. aureus Topoisomerase IV (Staphylococcus aureus, UniProt P0C1S7+P0C1U9); experiment: Topoisomerase IV decatenation assay (S. aureus); details: read-out: % inhibition Topo IV
T1 construct: purchased Inspiralis, UK
How it was run: (§1)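 Topo IV decatenation of kDNA (200 ng) with 0.5 U enzyme in HEPES-KOH pH 7.6 buffer containing 1 mM ATP and Mg acetate, 30 min at 37 °C. Single-concentration screen (200, 100 or 50 μM) in duplicate. Decatenated minicircles resolved on agarose, ethidium-stained band intensity expressed as % inhibition versus vehicle; IC50 from exponential-decay curve fit.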

S. aureus DNA gyrase = target: T2, S. aureus DNA gyrase (Staphylococcus aureus, UniProt P0A0K8+P20831); experiment: DNA gyrase supercoiling assay (S. aureus); details: S. aureus; conc. 50 μM; n/a = not active
T2 construct: purchased Inspiralis, UK
How it was run: (§2)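 Relaxed pBR322 (0.5 μg) supercoiled by E. coli (2 U) or S. aureus (1 U) gyrase, 30 min at 37° C; compounds at single 200, 100 or 50 μM, duplicate. Supercoiled band quantified on ethidium-stained agarose gel, expressed as % inhibition vs DMSO control; IC50 by two-parameter exponential decay fit.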

E. coli Topoisomerase IV = target: T3, E. coli Topoisomerase IV (Escherichia coli, UniProt P0AFI2+P20083); experiment: Topoisomerase IV decatenation assay (E. coli); details: E. coli; conc. 50 μM; n/a = not active; read-out: % inhibition Topo IV
T3 construct: purchased Inspiralis, UK
How it was run: as §1

E. coli DNA gyrase = target: T4, E. coli DNA gyrase (Escherichia coli, UniProt P0AES4+P0AES6); experiment: DNA gyrase supercoiling assay (E. coli); details: E. coli; conc. 50 μM; n/a = not active
T4 construct: purchased Inspiralis, UK
How it was run: as §2

T1 sequence (P0C1S7 whole entry): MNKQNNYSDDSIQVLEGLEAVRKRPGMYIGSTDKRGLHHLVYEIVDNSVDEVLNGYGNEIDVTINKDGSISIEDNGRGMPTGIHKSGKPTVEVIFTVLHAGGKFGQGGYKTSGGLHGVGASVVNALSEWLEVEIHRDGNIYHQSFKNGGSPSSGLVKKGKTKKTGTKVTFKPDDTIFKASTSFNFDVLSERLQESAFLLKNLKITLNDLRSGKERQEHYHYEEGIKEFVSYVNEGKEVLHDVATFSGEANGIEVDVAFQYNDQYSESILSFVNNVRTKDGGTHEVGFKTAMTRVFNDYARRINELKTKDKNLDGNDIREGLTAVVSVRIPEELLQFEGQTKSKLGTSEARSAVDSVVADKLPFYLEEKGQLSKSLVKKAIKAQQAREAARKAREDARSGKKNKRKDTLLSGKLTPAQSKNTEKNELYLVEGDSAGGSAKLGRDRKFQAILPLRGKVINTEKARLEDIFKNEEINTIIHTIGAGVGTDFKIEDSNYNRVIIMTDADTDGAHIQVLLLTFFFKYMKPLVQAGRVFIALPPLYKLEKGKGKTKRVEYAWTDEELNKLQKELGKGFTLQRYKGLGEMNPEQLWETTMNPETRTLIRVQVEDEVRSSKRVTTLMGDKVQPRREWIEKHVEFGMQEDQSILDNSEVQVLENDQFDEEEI
T1 sequence (P0C1U9 whole entry): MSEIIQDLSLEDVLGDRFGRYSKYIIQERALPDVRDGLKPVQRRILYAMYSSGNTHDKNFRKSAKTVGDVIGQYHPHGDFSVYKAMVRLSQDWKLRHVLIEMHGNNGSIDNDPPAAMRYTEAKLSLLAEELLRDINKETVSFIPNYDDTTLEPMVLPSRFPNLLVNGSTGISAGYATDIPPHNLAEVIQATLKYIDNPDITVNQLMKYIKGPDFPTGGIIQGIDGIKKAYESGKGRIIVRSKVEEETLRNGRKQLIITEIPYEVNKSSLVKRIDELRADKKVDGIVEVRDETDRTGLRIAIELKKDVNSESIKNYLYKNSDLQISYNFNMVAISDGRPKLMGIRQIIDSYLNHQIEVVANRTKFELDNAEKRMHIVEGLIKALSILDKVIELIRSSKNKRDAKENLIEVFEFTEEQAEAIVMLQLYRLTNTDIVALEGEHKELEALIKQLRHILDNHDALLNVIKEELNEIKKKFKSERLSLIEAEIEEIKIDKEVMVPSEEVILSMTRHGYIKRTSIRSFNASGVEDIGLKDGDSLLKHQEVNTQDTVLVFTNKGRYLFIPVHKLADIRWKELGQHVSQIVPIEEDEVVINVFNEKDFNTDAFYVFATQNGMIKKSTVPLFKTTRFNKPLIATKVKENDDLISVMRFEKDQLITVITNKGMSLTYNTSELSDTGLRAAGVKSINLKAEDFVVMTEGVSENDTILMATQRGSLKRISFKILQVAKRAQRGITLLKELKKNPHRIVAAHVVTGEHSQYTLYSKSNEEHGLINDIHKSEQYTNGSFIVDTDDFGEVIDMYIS
T3 sequence (P20083 whole entry): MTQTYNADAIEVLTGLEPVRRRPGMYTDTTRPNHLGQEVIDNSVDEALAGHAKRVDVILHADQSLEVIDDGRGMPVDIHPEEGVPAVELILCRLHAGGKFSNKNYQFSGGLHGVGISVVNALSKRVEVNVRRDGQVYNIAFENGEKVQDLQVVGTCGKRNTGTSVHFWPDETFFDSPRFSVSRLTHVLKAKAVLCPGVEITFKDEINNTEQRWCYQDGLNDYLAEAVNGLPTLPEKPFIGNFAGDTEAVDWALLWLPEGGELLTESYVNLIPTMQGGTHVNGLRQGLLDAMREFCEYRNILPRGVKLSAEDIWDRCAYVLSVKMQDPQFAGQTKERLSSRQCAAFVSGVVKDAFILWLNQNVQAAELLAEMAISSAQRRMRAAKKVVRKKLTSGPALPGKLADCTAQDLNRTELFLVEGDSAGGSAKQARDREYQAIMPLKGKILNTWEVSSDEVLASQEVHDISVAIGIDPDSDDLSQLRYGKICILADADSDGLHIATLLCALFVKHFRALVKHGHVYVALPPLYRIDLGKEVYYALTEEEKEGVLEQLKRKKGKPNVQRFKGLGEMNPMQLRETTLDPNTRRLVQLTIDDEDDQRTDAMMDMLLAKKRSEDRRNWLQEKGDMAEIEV
T3 sequence (P0AFI2 whole entry): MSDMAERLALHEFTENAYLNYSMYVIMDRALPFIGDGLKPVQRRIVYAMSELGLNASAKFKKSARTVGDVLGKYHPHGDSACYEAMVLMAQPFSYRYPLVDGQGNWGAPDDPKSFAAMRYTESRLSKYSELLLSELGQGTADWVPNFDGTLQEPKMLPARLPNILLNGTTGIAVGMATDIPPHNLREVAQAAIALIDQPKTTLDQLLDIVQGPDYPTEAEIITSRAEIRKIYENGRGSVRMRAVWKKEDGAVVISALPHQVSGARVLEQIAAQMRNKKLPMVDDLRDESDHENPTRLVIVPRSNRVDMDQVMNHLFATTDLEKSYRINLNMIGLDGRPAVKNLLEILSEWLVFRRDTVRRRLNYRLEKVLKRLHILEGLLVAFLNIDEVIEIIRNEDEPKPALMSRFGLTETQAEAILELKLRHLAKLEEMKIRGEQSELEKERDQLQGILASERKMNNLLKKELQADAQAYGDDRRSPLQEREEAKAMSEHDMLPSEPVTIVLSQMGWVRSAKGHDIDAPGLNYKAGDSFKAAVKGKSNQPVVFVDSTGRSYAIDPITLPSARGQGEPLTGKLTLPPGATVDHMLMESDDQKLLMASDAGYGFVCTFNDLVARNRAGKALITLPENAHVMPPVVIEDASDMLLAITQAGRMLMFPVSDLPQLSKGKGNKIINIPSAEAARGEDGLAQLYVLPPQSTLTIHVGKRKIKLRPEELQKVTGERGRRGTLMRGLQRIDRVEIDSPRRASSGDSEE
T2 sequence (P0A0K8 whole entry): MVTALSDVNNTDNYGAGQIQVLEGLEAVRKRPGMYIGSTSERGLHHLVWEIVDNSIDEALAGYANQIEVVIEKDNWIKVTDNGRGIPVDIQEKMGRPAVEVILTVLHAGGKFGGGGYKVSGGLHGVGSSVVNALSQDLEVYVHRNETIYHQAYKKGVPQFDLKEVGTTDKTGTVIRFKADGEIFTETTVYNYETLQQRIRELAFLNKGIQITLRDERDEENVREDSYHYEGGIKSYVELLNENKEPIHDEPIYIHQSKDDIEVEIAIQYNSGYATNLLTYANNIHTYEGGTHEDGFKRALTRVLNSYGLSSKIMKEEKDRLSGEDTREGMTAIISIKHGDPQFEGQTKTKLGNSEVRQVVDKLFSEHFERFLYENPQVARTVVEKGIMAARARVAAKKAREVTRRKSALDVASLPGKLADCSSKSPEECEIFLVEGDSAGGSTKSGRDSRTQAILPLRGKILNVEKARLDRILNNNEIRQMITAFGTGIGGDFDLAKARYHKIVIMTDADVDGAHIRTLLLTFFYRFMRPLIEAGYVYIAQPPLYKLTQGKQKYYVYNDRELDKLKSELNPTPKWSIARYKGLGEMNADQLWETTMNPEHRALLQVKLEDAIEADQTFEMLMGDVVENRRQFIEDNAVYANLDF
T2 sequence (P20831 whole entry): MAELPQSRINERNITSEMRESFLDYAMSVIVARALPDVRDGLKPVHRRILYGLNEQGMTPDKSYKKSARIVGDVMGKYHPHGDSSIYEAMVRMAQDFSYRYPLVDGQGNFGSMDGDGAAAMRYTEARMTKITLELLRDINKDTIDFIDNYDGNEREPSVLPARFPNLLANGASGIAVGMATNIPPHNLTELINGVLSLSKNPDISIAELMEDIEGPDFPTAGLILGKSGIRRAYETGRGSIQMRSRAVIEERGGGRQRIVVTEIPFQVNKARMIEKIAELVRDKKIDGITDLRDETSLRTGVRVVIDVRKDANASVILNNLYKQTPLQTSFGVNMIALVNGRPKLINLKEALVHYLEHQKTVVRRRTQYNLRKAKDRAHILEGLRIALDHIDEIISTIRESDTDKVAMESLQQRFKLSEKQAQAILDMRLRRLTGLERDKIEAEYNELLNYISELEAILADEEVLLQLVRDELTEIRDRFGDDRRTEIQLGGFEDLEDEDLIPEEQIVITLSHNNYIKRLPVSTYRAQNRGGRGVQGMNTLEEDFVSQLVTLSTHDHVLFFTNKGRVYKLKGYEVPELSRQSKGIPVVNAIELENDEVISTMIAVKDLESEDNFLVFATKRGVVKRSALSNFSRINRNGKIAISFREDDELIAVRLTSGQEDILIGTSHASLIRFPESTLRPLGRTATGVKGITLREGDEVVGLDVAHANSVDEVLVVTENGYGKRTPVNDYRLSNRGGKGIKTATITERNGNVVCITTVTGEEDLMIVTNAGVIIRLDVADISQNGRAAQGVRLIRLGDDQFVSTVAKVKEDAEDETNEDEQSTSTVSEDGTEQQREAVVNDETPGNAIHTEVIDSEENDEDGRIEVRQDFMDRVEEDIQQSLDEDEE

**Q.** How did the inhibition at 50 µM [1] turn out when `COc1cnc2ccnc(N3CCC(NCc4cc5c([nH]4)c(=O)oc4ccc(F)cc45)CC3)c2n1` [Compound 199, 8-fluoro-2-({[1-(3-methoxypyrido[3,4-b]pyrazin-5-yl)piperidin-4-yl]amino}methyl)[1]benzopyrano[3,4-b]pyrrol-4(3H)-one] was run?
**A.** 100%

**Q.** And the inhibition at 50 µM (S. aureus DNA gyrase)?
**A.** 92%

**Q.** And the inhibition at 50 µM (E. coli Topoisomerase IV)?
**A.** 100%

**Q.** What about the inhibition at 50 µM (E. coli DNA gyrase) of the same molecule?
**A.** 90%

**Q.** For `COc1ccc2cc(F)nc(N3CCN(CC(O)CNc4cc(=O)oc5ccc(F)cc45)CC3)c2c1` (centres unmarked) [Compound 203, 6-fluoro-4-({3-[4-(3-fluoro-7-methoxyisoquinolin-1-yl)piperazin-1-yl]-2-hydroxypropyl}amino)-2H-1-benzopyran-2-one], which inhibition at 50 µM [1] is on record?
**A.** 100%

**Q.** What about the inhibition at 50 µM (S. aureus DNA gyrase) of the same molecule?
**A.** 100%

**Q.** What about the inhibition at 50 µM (E. coli Topoisomerase IV) of the same molecule?
**A.** 100%

**Q.** And the inhibition at 50 µM (E. coli DNA gyrase)?
**A.** 100%
